Reference: US9789119B2, “Cognitive function” (priority 2010, dated 2017)
Entries after “also recorded” stand apart in the source; their conditions may differ.

How the values were obtained:
Ts65Dn mice = conditions: short-term administration of low doses; cited from earlier work
[1] = test system: Ts65Dn mouse model of Down syndrome; assay: Novel Object Recognition (NOR) task in Ts65Dn mice; assay type: in vivo; conditions: 0.3 mg/kg IP daily for two weeks, NOR two weeks after treatment end
Procedure: In this case, the effect of the noncompetitive GABAA receptor antagonist pentylenetetrazole (PTZ) on cognitive function in the Ts65Dn mouse model of Down syndrome was assessed with the Novel Object Recognition (NOR) task.
(§1) The NOR task is based on the established finding that mice preferentially explore novel objects relative to remembered objects. The test consists of a training session and a testing session. During the training session, a mouse is allowed 15 minutes to explore freely a training chamber that contains two objects. The amount of time the mouse uses to explore each object is quantified using video monitoring. The mouse is removed from the training session for 24 hours, during which time one of the objects in the training chamber is replaced with a novel object. The mouse is returned to the training chamber for the testing session, during which video monitoring is again used to quantify the amount of time the mouse uses to explore each object.
Ts65Dn mice and wild-type (2N) controls were maintained on a 12:12 light:dark (LD) cycle. At three months of age, their NOR task performance was determined. The animals then received daily intraperitoneal (IP) injections of pentylenetetrazole (PTZ; 0.3 mg/kg) for two weeks (“treatment”). […] Two weeks after treatment end, the NOR task performance of all mice was again determined. […]

wild-type (2N) mice = assay: Novel Object Recognition (NOR) task in wild-type (2N) mice; assay type: in vivo, mouse; conditions: 0.3 mg/kg IP daily for two weeks, light cycle (FIG. 1 panel B)
Procedure: as §1
Ts65Dn mice and wild-type (2N) controls were maintained on a 12:12 light:dark (LD) cycle. At three months of age, their NOR task performance was determined. The animals then received daily intraperitoneal (IP) injections of pentylenetetrazole (PTZ; 0.3 mg/kg) for two weeks (“treatment”). A control group received vehicle control (saline; NaCl) only for the same duration. The IP injections occurred near the middle of the light phase or during the dark phase of a LD cycle. Two weeks after treatment end, the NOR task performance of all mice was again determined. All NOR tasks were performed during the light phase of a LD cycle. […]

Row | Compound | cognitive function (Ts65Dn mice) | hippocampal LTP induction (Ts65Dn mice) | performance in the Novel Object Recognition (NOR) task ([1]; dark phase (wakefulness)) | performance in the Novel Object Recognition (NOR) task ([1]; middle of light phase (sleep)) | time spent exploring objects in NOR task (wild-type (2N) mice)
1 | CC(C)(C)[C@]1(O)CC2OC(=O)CC23C(=O)OC2OC(=O)[C@H](O)C231 (stereo partly drawn) [BB, bilobalide] | improve in a long-lasting manner | improve in a long-lasting manner | – | – | –
2 | C1CCc2nnnn2CC1 [PTZ, pentylenetetrazole] | improve in a long-lasting manner | improve in a long-lasting manner | some improvement relative to the saline-injected controls; also recorded: less effective in improving performance in the NOR task; also recorded: less effective in improving cognitive function | spent a significantly larger proportion of time of the testing session exploring the novel object; also recorded: normalizes performance in the Novel Object Recognition (NOR) task; also recorded: can improve cognition | more time on the new object during the testing session
3 | picrotoxin [PTX] | improve in a long-lasting manner | improve in a long-lasting manner | – | – | –
